From ChEMBL document CHEMBL1128530, “Alpha- and beta-adrenoceptors: from the gene to the clinic. 1. Molecular biology and adrenoceptor subclassification” (J Med Chem, 1995)

Columns and labels:
[1] = biological target: T1, Alpha-2 adrenergic receptor (Mus musculus, UniProt P30545+Q01338+Q01337); assay: Compound was evaluated for inhibition of binding of [3H]MK-91 to Alpha-2 adrenergic receptor in mouse Malpha2-10H clone; format: protein assay
T1 sequence (P30545 whole entry): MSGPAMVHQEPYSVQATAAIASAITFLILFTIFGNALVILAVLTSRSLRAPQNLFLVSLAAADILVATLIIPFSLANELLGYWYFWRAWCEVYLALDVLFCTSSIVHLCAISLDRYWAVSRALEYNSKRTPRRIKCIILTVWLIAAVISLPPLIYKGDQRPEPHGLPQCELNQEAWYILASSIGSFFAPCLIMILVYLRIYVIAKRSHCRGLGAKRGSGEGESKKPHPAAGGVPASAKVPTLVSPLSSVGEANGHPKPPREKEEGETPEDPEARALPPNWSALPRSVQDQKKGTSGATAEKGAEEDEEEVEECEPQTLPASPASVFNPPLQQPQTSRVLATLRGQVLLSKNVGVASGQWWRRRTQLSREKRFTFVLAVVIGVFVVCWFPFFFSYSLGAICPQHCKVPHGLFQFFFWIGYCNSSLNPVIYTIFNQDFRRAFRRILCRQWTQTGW
T1 sequence (Q01338 whole entry): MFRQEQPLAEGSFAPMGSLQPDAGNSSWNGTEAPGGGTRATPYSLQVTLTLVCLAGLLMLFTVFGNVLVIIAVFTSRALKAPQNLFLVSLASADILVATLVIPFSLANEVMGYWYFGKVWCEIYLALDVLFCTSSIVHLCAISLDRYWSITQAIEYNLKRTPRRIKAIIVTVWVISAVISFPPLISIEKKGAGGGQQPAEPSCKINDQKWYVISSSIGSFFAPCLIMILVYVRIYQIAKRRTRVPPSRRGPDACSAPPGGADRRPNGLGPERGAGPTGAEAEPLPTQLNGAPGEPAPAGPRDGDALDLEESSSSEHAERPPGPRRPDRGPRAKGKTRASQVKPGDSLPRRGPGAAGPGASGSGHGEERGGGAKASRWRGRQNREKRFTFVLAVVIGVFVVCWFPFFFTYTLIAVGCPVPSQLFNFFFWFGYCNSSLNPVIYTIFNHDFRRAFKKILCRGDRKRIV
T1 sequence (Q01337 whole entry): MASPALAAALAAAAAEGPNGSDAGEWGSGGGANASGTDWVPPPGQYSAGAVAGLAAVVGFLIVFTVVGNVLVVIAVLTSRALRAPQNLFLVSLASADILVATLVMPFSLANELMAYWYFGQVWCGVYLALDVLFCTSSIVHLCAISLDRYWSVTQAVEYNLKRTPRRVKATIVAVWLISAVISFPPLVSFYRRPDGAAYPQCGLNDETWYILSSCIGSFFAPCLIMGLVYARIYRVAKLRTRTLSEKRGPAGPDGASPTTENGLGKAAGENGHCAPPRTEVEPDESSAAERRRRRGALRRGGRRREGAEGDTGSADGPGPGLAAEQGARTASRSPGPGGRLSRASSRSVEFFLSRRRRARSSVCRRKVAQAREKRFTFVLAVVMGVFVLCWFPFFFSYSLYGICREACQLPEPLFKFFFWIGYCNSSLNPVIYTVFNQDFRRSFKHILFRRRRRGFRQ

[2] = biological target: T1, Alpha-2 adrenergic receptor; assay: Compound was evaluated for inhibition of binding of [3H]MK-91 to Alpha-2 adrenergic receptor in mouse Malpha2-4H; format: protein assay
[3] = biological target: T2, Alpha-2A adrenergic receptor (Bos taurus, UniProt Q28838); assay: Compound was evaluated for inhibition of binding of [3H]MK-91 to Alpha-2 adrenergic receptor in bovine pineal
T2 sequence (Q28838 whole entry): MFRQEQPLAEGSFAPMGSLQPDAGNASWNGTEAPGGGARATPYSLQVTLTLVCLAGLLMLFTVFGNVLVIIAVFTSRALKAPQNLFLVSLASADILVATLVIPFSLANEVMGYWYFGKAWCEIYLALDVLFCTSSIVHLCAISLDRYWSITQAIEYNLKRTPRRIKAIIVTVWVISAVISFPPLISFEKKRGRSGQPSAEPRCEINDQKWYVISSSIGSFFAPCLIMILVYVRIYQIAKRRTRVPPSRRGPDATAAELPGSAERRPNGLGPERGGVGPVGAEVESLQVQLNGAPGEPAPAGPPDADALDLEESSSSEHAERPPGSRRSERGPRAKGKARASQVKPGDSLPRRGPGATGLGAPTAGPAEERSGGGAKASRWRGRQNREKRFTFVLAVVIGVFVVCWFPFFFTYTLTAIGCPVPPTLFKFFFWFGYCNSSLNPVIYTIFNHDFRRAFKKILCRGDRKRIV

[4] = biological target: T3, Alpha-2A adrenergic receptor (Sus scrofa, UniProt P18871); assay: Compound was evaluated for inhibition of binding of [3H]MK-91 to Alpha-2 adrenergic receptor in porcine alpha2-clone
T3 sequence (P18871 whole entry): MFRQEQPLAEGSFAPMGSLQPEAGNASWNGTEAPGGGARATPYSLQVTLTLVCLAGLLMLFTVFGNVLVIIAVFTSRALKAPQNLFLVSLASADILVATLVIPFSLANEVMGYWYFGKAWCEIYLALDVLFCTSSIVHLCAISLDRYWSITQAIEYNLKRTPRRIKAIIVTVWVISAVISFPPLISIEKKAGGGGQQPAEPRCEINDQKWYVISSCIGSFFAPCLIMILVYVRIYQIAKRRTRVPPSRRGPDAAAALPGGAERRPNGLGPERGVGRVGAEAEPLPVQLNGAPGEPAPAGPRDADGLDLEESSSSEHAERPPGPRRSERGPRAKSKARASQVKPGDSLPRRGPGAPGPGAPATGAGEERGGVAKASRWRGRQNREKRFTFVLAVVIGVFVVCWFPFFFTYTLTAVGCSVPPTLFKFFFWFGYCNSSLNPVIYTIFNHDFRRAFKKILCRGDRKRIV

[5] = biological target: T1, Alpha-2 adrenergic receptor; assay: Compound was evaluated for inhibition of binding of [3H]-MK-91 to Alpha-2 adrenergic receptor in mouse NG-108 cells; format: cell-based

Cc1cc(C(C)(C)C)c(O)c(C)c1CC1=NCCN1 [OXYMETAZOLINE]
Ki [1]: 33 nM
Ki [2]: 109 nM
Ki [3]: 1.5 nM
Ki [4]: 21 nM
Ki [5]: 132 nM
